Source text: As used herein, the term “solubility” in regard to water solubility includes cases where the sample completely dissolves in deionized water to form a homogeneous mixture, and cases where the sample is completely emulsified. As used herein, “completely” means that no mass of the sample remains in the deionized water.

Water solubility	SMILES
<0.05 g	CCCCCCCCCCCCOC(=O)CCCCCCCCCCC [2-18]
<0.05 g	CCCCCCCCCCCCCC(=O)OCCCCCCCCCCCC [2-19]
